Experiments:
[1] = test system: a variety of cancer cell lines; design: method as in PMID 27720292; details: cited from earlier work
[2] = test system: PC-3 prostate cancer cell line; assay: MTT cell viability assay, PC-3; assay type: cell-based; details: Homo sapiens, treatment 72 h and 96 h, mean ± SD of three experiments
Experimental: (§1) The human HCT116 colon cancer cell line and PC-3 prostate cancer cell line were obtained from the American Type Cell Culture (ATCC, Bethesda, Md). Both cell lines were grown in 75 cm^2 culture flasks at 37 °C in 5% CO2 using Roswell Park Memorial Institute 1640 medium (RPMI 1640, Gibco) and Dulbecco’s modified Eagle’s medium F/12 (DMEM/F-12, Gibco), respectively, containing 10% fetal bovine serum (FBS, Gibco). To test the inhibitory activities of compounds using a cell-based assay, MTT assay was performed for cell viability, as described previously. Briefly, HCT116 cells were plated at a density of 1500 per well, while PC-3 cells were plated at a density of 750 per well in a 96-well plate. After 24 h, cells were treated with the indicated compounds in a dose-dependent manner for 72 h and 96 h (all tested compounds provided clear solutions). MTT [3-(4,5-dimethylthiazol-2-yl)-2,5-diphenyltetrazolium bromide] (Sigma M-5655) was added at a final concentration of 0.5 mg/mL directly to each well for 4 h at 37 °C. The medium was aspirated, and the blue MTT formazan precipitate was dissolved in dimethyl sulfoxide (DMSO). Absorbance was determined in a Powerwave microplate spectrophotometer (Biotek Instruments, Inc.) at 540 nm. Viable cell numbers were determined by tetrazolium conversion to its formazan dye. The IC50 was calculated by Microsoft Excel equation and confirmed by GraphPad Prism (7.0). Each experiment was performed in triplicate and mean values ± SD are reported.

[3] = test system: HCT116 colon cancer cell line; assay: MTT cell viability assay, HCT116; assay type: cell-based; details: Homo sapiens, HCT-116, treatment 72 h and 96 h, mean ± SD of three experiments
Experimental: as §1

[4] = test system: normal human fibroblasts (WI-38); assay: MTT cytotoxicity towards normal fibroblasts; assay type: cell-based; details: for Selectivity Index HCT116: SI = IC50 non cancer cell (WI-38)/IC50 cancer cell (HCT116); for Selectivity Index PC-3: SI = IC50 non cancer cell (WI-38)/IC50 cancer cell (PC-3); for cytotoxicity to normal cells in words / IC50: WI-38; for IC50: MTT, normal human fibroblasts
Experimental: as §1
Figure 1 Dose-response curves for the administration of 14b, 26b, 35b on HCT116, PC-3 and WI-38 cells, as assessed by the MTT assay. Results are expressed as a percentage of controls. Statistical analysis was performed in triplicate determination at p < 0.05.

PC-3 cells [5] = assay: DNA staining (propidium iodide) and flow cytometric cell cycle analysis; assay type: cell-based, human; details: PC-3, 72 h; for Cell cycle phase distribution G0/G1 / Cell cycle phase distribution G2/M / Cell cycle phase distribution S: compound at its IC50
Experimental: (§2) For cell cycle analysis, cell culture supernatants and attached cells were collected, centrifuged, washed in PBS, fixed in 50% ethanol and stained with an RNase-containing propidium iodide solution (50 μg/mL) (all reagents from Sigma). For cell apoptosis assay, cells were harvested and stained with Annexin V binding buffer, Annexin V–FITC and 7-AAD (Annexin V-FITC Apoptosis Detection Kit, BD Systems). DNA content was analyzed on a BD Accuri C6 Flow Cytometer using the BD CSampler software (BD Biosciences, USA). Non-apoptotic events were used to calculate the percentage of cells distributed in each phase. A p value < 0.05 was considered to be statistically significant (Student’s t-test).

PC-3 cells [6] = assay: Annexin V-7AAD apoptosis assay; assay type: cell-based, human; details: PC-3, 72 h, compound at its IC50, AnnexinV-7AAD staining; vehicle 3.5%
Experimental: as §2

IC50 [2] [nM] | IC50 [3] [nM] | melting point [°C] | SMILES | IC50 values [1] | Selectivity Index HCT116 [4] | Selectivity Index PC-3 [4] | cytotoxicity to normal cells in words [4] | IC50 [4] [nM] | selectivity index ([4]; normal cell line WI-38 vs both cancer cell lines) | cell-cycle perturbation in words (PC-3 cells [5]) | Cell cycle phase distribution G0/G1 (PC-3 cells [5]) | Cell cycle phase distribution G2/M (PC-3 cells [5]) | Cell cycle phase distribution S (PC-3 cells [5]) | apoptotic nuclei (PC-3 cells [6]) [%]
– | – | – | COc1cc(Nc2nccc3c(-c4ccccc4)n[nH]c23)cc(OC)c1OC [3-phenyl-7-(3,4,5-trimethoxyphenyl)aminopyrazolo[3,4-c]pyridine] | medium to high nM range | – | – | – | – | – | – | – | – | – | –
55 ± 15 | 90 ± 10 | 168 to 169 | Fc1cccc(-c2c[nH]c3c(Nc4ccccc4)nccc23)c1 [14b, 3-(3-Fluorophenyl)-Ν-phenyl-1H-pyrrolo[2,3-c]pyridin-7-amine] | – | 222 | 363 | practically non-toxic against the normal cell line | 20000 ± 400 | higher than 200 | statistically significant accumulation of PC-3 cells at G2/M phase | 48.7 (±0.6) % | 30.8 (±0.8) % | 20.5 (±1.4) % | 26.5
1950 ± 50 | 2050 ± 50 | > 250 | Fc1cccc(-c2c[nH]c3c(Nc4ccccc4)ncnc23)c1 [26b, 7-(3-Fluorophenyl)-Ν-phenyl-5H-pyrrolo[3,2-d]pyrimidin-4-amine] | – | 8.3 | 8.7 | non-cytotoxic to the normal cell line | 17000 ± 1500 | – | – | 54.4 (±1.1) % | 24.9 (±1.6) % | 20.7 (±02.7) % | 17.7
550 ± 50 | 2300 ± 200 | 237 to 238 | Fc1cccc(-c2n[nH]c3c(Nc4ccccc4)ncnc23)c1 [35b, 3-(3-Fluorophenyl)-Ν-phenyl-1H-pyrazolo[4,3-d]pyrimidin-7-amine] | – | 5.3 | 22.2 | non-cytotoxic to the normal cell line | 12200 ± 1000 | – | – | 58.9 (±0.6) % | 24.9 (±2.4) % | 16.3 (±1.8) % | 11.5
